In patent publication US20090325873A1, “HUMAN GLP-1 MIMETIBODIES, COMPOSITIONS, METHODS AND USES” (CENTOCOR, INC., priority 2006, published 2009):
Where no end group is shown, it is not given here.

Assays:
[1] = tested on: db/db mice; assay: Blood glucose in db/db mice after intravenous dosing; format: in vivo; conditions: six week old db/db mice, 0.5-4 hours post-dosing, MMB dose 100-fold lower than peptide dose
Method: Blood glucose was monitored 0.5, 1, 2, 3, and 4 hours post-dosing.

[2] = tested on: female beagle dogs; assay: Gastric emptying in normal dogs; format: in vivo; conditions: lidamidine 0.63 mg/kg sc 60 minutes before the meal; GLP-1 MMB 0.1 mg/kg iv 15 minutes before the meal
Method: A gastric cannula was surgically implanted into female beagle dogs (10-15 kg) under general anesthesia and allowed to recover for at least 2 weeks. Dogs were fasted for 24 hours after which water was freely available. The gastric cannula was opened and gastric juice and food remnants were removed with 40-50 ml of lukewarm water. Groups of six dogs were dosed subcutaneously with lidamidine, an alpha2 agonist (0.63 mg/kg), 60 minutes before the meal, a positive control for delay of gastric emptying. […] Five minutes before the meal, the gastric cannula was opened to determine the amount of fluid present in stomach for baseline value and fluid was promptly reintroduced. Then a test meal consisting of 250 ml of a glucose solution (5 g/l) was administered via the cannula and allowed to remain in the stomach for 30 minutes. Gastric contents were drained from the stomach to measure total volume after 30 minutes. […] Glucose concentrations were evaluated for collected samples and used to determine the absolute amount of glucose remaining in the stomach at each time point. The percentage of glucose retained in the stomach was determined from the starting value and the concentration of glucose at each time point and plotted as a function of time. The time at which 50% of the gastric contents were retained was determined by fitting of the curves to a single exponential.

[3] = administered subcutaneously; cited from earlier work
[4] = tested on: RINm cells; assay: Insulin secretion in RINm cells; format: cell-based; conditions: peptides 0-5 nM, mimetibodies 5 or 50 nM, ELISA
Method: To test the effect of GLP-1 MMB in insulin secretion, RINm cells were treated with increasing concentrations of GLP-1 (7-36) peptide (0-5 nM), exendin-4 peptide (0-5 nM), or various GLP-1 mimetibodies (5 or 50 nM) and the amount of insulin secreted was measured via ELISA. All GLP-1 MMBs tested had activities in stimulating insulin secretion in RINm cells (FIG. 6).

[5] = tested on: wild type mice; assay: Food intake in wild type mice; format: in vivo; conditions: single iv GLP-1 MMB 1 mg/kg, exendin-4 0.07 mg/kg
[6] = tested on: wild type mice; assay: Glucose tolerance test (ipGTT) in wild type mice; format: in vivo; conditions: single iv GLP-1 MMB 1 mg/kg, exendin-4 0.07 mg/kg
[7] = tested on: GLP-1R−/− mice; assay: Gastric emptying in GLP-1R−/− mice; format: in vivo; conditions: iv GLP-1 MMB 1 mg/kg, exendin-4 0.07 mg/kg
Method: (§1) Materials/Methods: Animals: Male GLP-1R−/− and age matched wild type mice were randomized into three treatment groups (n=5) based on body weight and fasting blood glucose. […] The next morning mice were re-fed for 1 h, food intake was recorded and the mice were deprived of food for the rest of the study. Mice were dosed intravenously as discussed above. Two hours post-dosing mice were euthanized. The stomach was exposed by laparotomy, ligated at both the pylorus and cardia and removed. The stomach content wet weight was measured. Equation 1 was used to calculate the percent of food remaining in the stomach.
(§2) (Stomach Content Wet Weight(g)/Food Intake(g))*100 Equation (1)

[8] = tested on: wild type mice; assay: Gastric emptying in wild type mice; format: in vivo; conditions: iv GLP-1 MMB 1 mg/kg, exendin-4 0.07 mg/kg
Method: as §1, §2

[9] = tested on: GLP-1R−/− mice; assay: Food intake in GLP-1R−/− mice; format: in vivo; conditions: single iv GLP-1 MMB 1 mg/kg, exendin-4 0.07 mg/kg

Compound: CC[C@H](C)[C@H](NC(=O)[C@H](Cc1ccccc1)NC(=O)[C@H](CCC(=O)O)NC(=O)[C@H](CCCCN)NC(=O)[C@H](C)NC(=O)[C@H](C)NC(=O)[C@H](CCC(N)=O)NC(=O)CNC(=O)[C@H](CCC(=O)O)NC(=O)[C@H](CC(C)C)NC(=O)[C@H](Cc1ccc(O)cc1)NC(=O)[C@H](CO)NC(=O)[C@H](CO)NC(=O)[C@@H](NC(=O)[C@H](CC(=O)O)NC(=O)[C@H](CO)NC(=O)[C@@H](NC(=O)[C@H](Cc1ccccc1)NC(=O)[C@@H](NC(=O)CNC(=O)[C@H](CCC(=O)O)NC(=O)[C@H](C)NC(=O)[C@@H](N)Cc1c[nH]cn1)[C@@H](C)O)[C@@H](C)O)C(C)C)C(=O)N[C@@H](C)C(=O)N[C@@H](Cc1c[nH]c2ccccc12)C(=O)N[C@@H](CC(C)C)C(=O)N[C@H](C(=O)N[C@@H](CCCCN)C(=O)NCC(=O)N[C@@H](CCCNC(=N)N)C(N)=O)C(C)C [GLP-1 peptide]
- blood glucose [1]: lowered blood glucose at 30 minutes

Compound: CN=C(N)NC(=O)Nc1c(C)cccc1C [lidamidine]
- time in which 50% of the gastric contents were emptied [2]: 30.60 ± 6.47 min

Compound: GLP-1 (7-36) amide: GLP-1 (7-36) amide
- time action [3]: about 50 minutes

Compound: GLP-1 (7-36) peptide: wide-type GLP-1 (7-36) peptide (HAEGTFTSDVSSYLEGQAAKEFIAWLVKGR; ends and bridges not checked; UniProt P01275 98-127, looked up)
- stimulation of insulin secretion in RINm cells [4]: stimulates insulin release

Compound: exendin-4 [reference compound]
- 24 hour cumulative food intake vs CNTO1996 [5]: statistically significant reduction in food intake
- area under the curve (AUC) of the ipGTT [6]: statistically significant reduction in the AUC
- gastric emptying 2 h after dosing [7]: no effect on gastric emptying
- stimulation of insulin secretion in RINm cells [4]: stimulates insulin release
- stomach content (percent of food remaining) 2 h after dosing vs CNTO1996 [8]: statistically significant increase in stomach content
- 24 hour cumulative food intake [9]: no effect on food intake
